Source: PubChem BioAssay AID256 (DTP/NCI, 2004)
Values joined by “and” are separate entries in the source; they are usually repeats but may differ in a detail not shown here. Equal values may be shown once. Inconclusive results and toxic doses are left out.

System: CD2F1 mice, L1210 leukemia ip, survival T/C
Assay: NCI In Vivo Anticancer Drug Screen. Data for tumor model L1210 Leukemia (intraperitoneal) in CD2F1 (CDF1) mice
Settings: endpoint: mean survival time, higher = longer survival
Method in brief: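 Tumor-bearing mice (transplanted tumor) were split into treated and vehicle control groups, and the measured endpoint of each treated group was divided by that of its vehicle controls.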

[1] = dose: 100.0 mg/kg/injection, schedule: Q01DX009 (ip), vehicle: saline sonified
[2] = dose: 200.0 mg/kg/injection, schedule: Q01DX009 (ip), vehicle: saline sonified
[3] = dose: 400.0 mg/kg/injection, schedule: Q01DX009 (ip), vehicle: saline sonified
[4] = dose: 100.0 mg/kg/injection, schedule: Q01DX009 (ip), vehicle: saline with Tween-80
[5] = dose: 200.0 mg/kg/injection, schedule: Q01DX009 (ip), vehicle: saline with Tween-80
[6] = dose: 100.0 mg/kg/injection, schedule: Q04DX003 (ip), vehicle: saline with Tween-80
[7] = dose: 200.0 mg/kg/injection, schedule: Q04DX003 (ip), vehicle: saline with Tween-80
[8] = dose: 50.0 mg/kg/injection, schedule: Q01DX009 (ip), vehicle: saline with Tween-80

`O=S(=O)(O)O.[Zr]` was tested, and the T/C (dose: 75.0 mg/kg/injection, schedule: Q01DX001 (ip), vehicle: saline) was 97 % of control and the T/C (dose: 150.0 mg/kg/injection, schedule: Q01DX001 (ip), vehicle: saline) was 91 % of control.

For `O=C(O)CSc1ccccc1`, the T/C (dose: 25.0 mg/kg/injection, schedule: Q04DX003 (ip), vehicle: other) was 98 % of control, the T/C (dose: 50.0 mg/kg/injection, schedule: Q04DX003 (ip), vehicle: other) was 98 % of control and the T/C (dose: 100.0 mg/kg/injection, schedule: Q04DX003 (ip), vehicle: saline) was 100 % of control. For the same compound, the T/C (dose: 200.0 mg/kg/injection, schedule: Q04DX003 (ip), vehicle: saline) was 98 % of control.

`Cc1sc(N)c(C#N)c1C` was tested, and the T/C [1] was 102 % of control, the T/C [2] was 102 % of control and the T/C [3] was 103 % of control.

In the case of `C=CCOc1ccccc1C(C)=O`, the T/C [4] is reported as 104 % of control, the T/C [5] is reported as 107 % of control and the T/C (dose: 400.0 mg/kg/injection, schedule: Q01DX009 (ip), vehicle: saline with Tween-80) is reported as 107 % of control.

In the case of `COc1cccc2c1C(=O)c1c(O)c3c(c(O)c1C2=O)CC(O)(C(=O)CO)CC3OC1CC(N)C(O)C(C)O1` (stereo unspecified), the T/C (dose: 0.31 mg/kg/injection, schedule: Q04DX003 (ip), vehicle: saline) is reported as 120 % of control, the T/C (dose: 0.62 mg/kg/injection, schedule: Q04DX003 (ip), vehicle: saline) is reported as 120 % of control and the T/C (dose: 3.13 mg/kg/injection, schedule: Q01DX009 (ip), vehicle: water) is reported as 117 % of control. The T/C (dose: 6.25 mg/kg/injection, schedule: Q01DX009 (ip), vehicle: water) was 123 % of control, the T/C (dose: 12.5 mg/kg/injection, schedule: Q01DX009 (ip), vehicle: water) was 202 % of control and the T/C (dose: 20.0 mg/kg/injection, schedule: Q04DX003 (ip), vehicle: saline) was 152 % of control and 155 % of control. The T/C (dose: 25.0 mg/kg/injection, schedule: Q01DX009 (ip), vehicle: water) was 151 % of control, the T/C (dose: 36.0 mg/kg/injection, schedule: Q01DX009 (ip), vehicle: water) was 150 % of control and the T/C (dose: 40.0 mg/kg/injection, schedule: Q04DX003 (ip), vehicle: saline) was 113 % of control. For the same compound, the T/C (dose: 80.0 mg/kg/injection, schedule: Q04DX003 (ip), vehicle: saline) was 89 % of control.

`CCC1(C)C=CCC(C)(C)S1` (stereo unspecified) was tested, and the T/C (dose: 100.0 mg/kg/injection, schedule: Q04DX002 (ip), vehicle: saline with Tween-80) was 102 % of control and the T/C (dose: 200.0 mg/kg/injection, schedule: Q04DX002 (ip), vehicle: saline with Tween-80) was 91 % of control.

With `[N-]=[N+]=CC(=O)NCC(=O)N/N=C/c1ccccn1` the T/C [1] was 104 % of control, the T/C [6] was 97 % of control and the T/C [2] was 104 % of control. The T/C [7] was 98 % of control, the T/C [3] was 97 % of control and the T/C (dose: 400.0 mg/kg/injection, schedule: Q04DX003 (ip), vehicle: saline with Tween-80) was 94 % of control.

`O=C1c2ccccc2C(=O)c2c(NCCCNCCO)ccc(NCCCNCCO)c21` was tested, and the T/C (dose: 12.5 mg/kg/injection, schedule: Q01DX009 (ip), vehicle: saline with Tween-80) was 104 % of control, the T/C (dose: 25.0 mg/kg/injection, schedule: Q01DX009 (ip), vehicle: saline with Tween-80) was 96 % of control and the T/C [8] was 102 % of control.

`CC(=O)NC1C=C(C)C(=O)O1` (stereo unspecified) was tested, and the T/C (dose: 100.0 mg/kg/injection, schedule: Q04DX002 (ip), vehicle: saline) was 102 % of control, the T/C (dose: 200.0 mg/kg/injection, schedule: Q04DX002 (ip), vehicle: saline) was 91 % of control and the T/C (dose: 400.0 mg/kg/injection, schedule: Q04DX002 (ip), vehicle: saline) was 94 % of control.

With `C/C(=C\Cl)COC(C)(C)C` the T/C [8] was 98 % of control, the T/C [4] was 93 % of control and the T/C (dose: 100.0 mg/kg/injection, schedule: Q04DX003 (ip), vehicle: acetone) was 101 % of control. For the same compound, the T/C [5] was 98 % of control and the T/C (dose: 200.0 mg/kg/injection, schedule: Q04DX003 (ip), vehicle: acetone) was 93 % of control.

`S=C=Nc1cccc(Cl)c1` was tested, and the T/C (dose: 75.0 mg/kg/injection, schedule: Q01DX009 (ip), vehicle: saline with Tween-80) was 95 % of control and 100 % of control, the T/C (dose: 150.0 mg/kg/injection, schedule: Q01DX009 (ip), vehicle: saline with Tween-80) was 100 % of control and the T/C (dose: 300.0 mg/kg/injection, schedule: Q01DX009 (ip), vehicle: saline with Tween-80) was 86 % of control.

For `CCC(C)(C)c1ccc(O)cc1`, the T/C [6] was 104 % of control and the T/C [7] was 98 % of control.
